In patent publication US12110276B2 (Genentech, Inc., priority 2021, dated 2024):
Counter-ions that a name gives are not always drawn.

What was measured:
TEAD4 = TEAD4 (Homo sapiens (Human), UniProt Q15561); assay: TR-FRET lipid pocket probe competition assay (Lipid HTRF), TEAD4; format: binding; details: 4 hours pre-incubation; read-out: Lipid HTRF TEAD4 IC50;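 note: His-tagged TEAD4 with biotinylated lipid-pocket probe, read by Europium anti-His and XL665 streptavidin, where probe displacement lowers the TR-FRET signal, IC50 from a four-parameter fit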
TEAD3 = TEAD3 (Homo sapiens (Human), UniProt Q99594); assay: TR-FRET lipid pocket probe competition assay (Lipid HTRF), TEAD3; format: binding; details: 4 hours pre-incubation; read-out: Lipid HTRF TEAD3 IC50
Protocol: (§1) His-tagged TEAD proteins are pre-incubated with TEAD project compounds for 30 minutes or 4 hours at room temperature. Biotinylated lipid pocket probes are then added to the TEAD/Compound mixture and incubated for 60 minutes at room temperature. The lipid pocket probe competes with the test compound for the TEAD lipid pocket until equilibrium is reached. After 60 minutes, Europium labelled anti-His (Perkin Elmer #AD0110) and XL665 labelled streptavidin (CIS Bio 610SAXAC) are added to the TEAD/test compound/lipid pocket mixture and incubated for 30 minutes or 4 hours. […] If a TEAD lipid pocket binder such as binds and displaces the lipid pocket probe, the disruption of the TEAD:probe interaction results in a decrease in TR-FRET signal. The potency of compounds as TEAD lipid pocket binders is determined by IC50 value generated using a non-linear 4 parameter curve fit.

TEAD1 = TEAD1 (Homo sapiens (Human), UniProt P28347); assay: TR-FRET lipid pocket probe competition assay (Lipid HTRF), TEAD1; format: binding; details: 4 hours pre-incubation; read-out: Lipid HTRF TEAD1 IC50;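 note: His-tagged TEAD1 with biotinylated probe, detected via Europium anti-His and XL665 streptavidin, probe displacement lowers TR-FRET signal, IC50 from four-parameter nonlinear fit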
Protocol: as §1

TEAD2 = TEAD2 (Homo sapiens (Human), UniProt Q15562);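 note: TR-FRET competition assay with His-tagged TEAD protein and a biotinylated lipid pocket probe, compound pre-incubated 30 min or 4 h at room temperature, displacement lowers signal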
TEAD2, sequence (Q15562 whole entry, species assumed): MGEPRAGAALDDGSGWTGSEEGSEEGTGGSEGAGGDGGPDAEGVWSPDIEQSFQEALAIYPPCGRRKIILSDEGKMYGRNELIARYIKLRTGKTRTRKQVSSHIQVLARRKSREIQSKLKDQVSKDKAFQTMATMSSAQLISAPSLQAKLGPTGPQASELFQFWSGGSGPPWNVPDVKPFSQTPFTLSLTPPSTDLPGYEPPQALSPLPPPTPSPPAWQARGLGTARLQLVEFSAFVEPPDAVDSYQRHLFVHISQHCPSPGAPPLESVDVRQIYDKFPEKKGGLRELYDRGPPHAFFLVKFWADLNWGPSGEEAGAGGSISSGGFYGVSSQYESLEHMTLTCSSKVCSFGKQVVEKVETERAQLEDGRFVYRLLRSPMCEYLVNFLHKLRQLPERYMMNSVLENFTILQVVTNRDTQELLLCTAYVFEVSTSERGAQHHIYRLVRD

TEAD1, sequence (P28347 whole entry, species assumed): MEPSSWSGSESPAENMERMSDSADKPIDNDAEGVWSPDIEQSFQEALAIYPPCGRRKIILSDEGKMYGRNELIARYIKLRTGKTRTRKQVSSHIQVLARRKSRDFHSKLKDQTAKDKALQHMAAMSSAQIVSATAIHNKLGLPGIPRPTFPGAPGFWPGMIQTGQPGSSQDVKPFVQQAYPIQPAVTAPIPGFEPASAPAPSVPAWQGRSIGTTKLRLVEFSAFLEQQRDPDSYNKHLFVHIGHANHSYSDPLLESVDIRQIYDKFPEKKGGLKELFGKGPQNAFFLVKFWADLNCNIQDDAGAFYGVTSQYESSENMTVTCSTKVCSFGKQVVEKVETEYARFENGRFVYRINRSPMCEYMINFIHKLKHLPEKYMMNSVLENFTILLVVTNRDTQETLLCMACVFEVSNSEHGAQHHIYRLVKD
TEAD3, sequence (Q99594 whole entry, species assumed): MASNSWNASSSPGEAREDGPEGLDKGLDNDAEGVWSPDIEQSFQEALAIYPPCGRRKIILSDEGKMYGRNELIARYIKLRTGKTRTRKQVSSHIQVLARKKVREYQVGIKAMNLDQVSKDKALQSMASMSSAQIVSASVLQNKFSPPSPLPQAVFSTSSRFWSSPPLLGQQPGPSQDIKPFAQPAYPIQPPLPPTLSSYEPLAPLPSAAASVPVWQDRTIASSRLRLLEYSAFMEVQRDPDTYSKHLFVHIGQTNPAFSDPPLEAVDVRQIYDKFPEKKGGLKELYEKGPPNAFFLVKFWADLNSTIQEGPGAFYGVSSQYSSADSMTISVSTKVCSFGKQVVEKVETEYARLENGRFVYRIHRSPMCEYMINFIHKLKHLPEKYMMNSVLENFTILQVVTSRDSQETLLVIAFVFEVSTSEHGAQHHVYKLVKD
TEAD4, sequence (Q15561 whole entry, species assumed): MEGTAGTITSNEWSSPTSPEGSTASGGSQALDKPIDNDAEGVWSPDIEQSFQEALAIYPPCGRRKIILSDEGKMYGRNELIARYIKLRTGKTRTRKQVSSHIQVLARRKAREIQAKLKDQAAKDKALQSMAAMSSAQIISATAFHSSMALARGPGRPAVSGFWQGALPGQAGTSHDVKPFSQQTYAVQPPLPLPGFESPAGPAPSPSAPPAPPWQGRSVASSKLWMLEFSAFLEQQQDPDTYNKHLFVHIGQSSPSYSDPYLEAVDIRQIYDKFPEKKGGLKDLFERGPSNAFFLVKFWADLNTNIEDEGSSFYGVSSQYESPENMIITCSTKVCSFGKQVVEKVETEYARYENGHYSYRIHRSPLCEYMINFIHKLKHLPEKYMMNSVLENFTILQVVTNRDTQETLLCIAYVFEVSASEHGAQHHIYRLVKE

Row | SMILES | IC50 (TEAD4) [µM] | IC50 (TEAD3) [µM] | IC50 (TEAD1) [µM] | IC50 (TEAD2) [µM]
1 | O=C(C1=CCCC1)N1CC(c2nn(-c3ccc(OC(F)(F)F)cc3)c3nccc(CO)c23)C1 [Compound 150, Cyclopent-1-en-1-yl(3-(4-(hydroxymethyl)-1-(4-(trifluoromethoxy)phenyl)-1H-pyrazolo[3,4-b]pyridin-3-yl)azetidin-1-yl)methanone] | 0.46 | 50 | 0.56 | 1.2
2 | C=C(F)C(=O)N1CC(c2nn(-c3ccc(OC(F)(F)F)cc3)c3nccc([C@H](O)CO)c23)C1 [Compound 31, (S)-1-(3-(4-(1,2-dihydroxyethyl)-1-(4-(trifluoromethoxy)phenyl)-1H-pyrazolo[3,4-b]pyridin-3-yl)azetidin-1-yl)-2-fluoroprop-2-en-1-one] | 0.0255 | 0.062 | 0.035 | 0.032
3 | C=CC(=O)NCc1nn(-c2ccc(OC(F)(F)F)cc2)c2nccc(O[C@H]3C[C@@H](O)C3)c12 [Compound 34, N-((4-(cis-3-Hydroxycyclobutoxy)-1-(4-(trifluoromethoxy)phenyl)-1H-pyrazolo[3,4-b]pyridin-3-yl)methyl)acrylamide] | 0.039 | 50 | 0.023 | 0.34
4 | C=CC(=O)NCc1nn(-c2ccc(OC(F)(F)F)cc2)c2cccnc12 [Compound 187, N-((1-(4-(trifluoromethoxy)phenyl)-1H-pyrazolo[4,3-b]pyridin-3-yl)methyl)acrylamide] | 0.055 | 0.95 | 0.091 | 1.2
5 | C=CC(=O)NCc1nn(-c2ccc(OC(F)(F)F)cc2)c2nccc(-c3c[nH]nn3)c12 [Compound 51, N-((4-(1H-1,2,3-Triazol-4-yl)-1-(4-(trifluoromethoxy)phenyl)-1H-pyrazolo[3,4-b]pyridin-3-yl)methyl)acrylamide] | 0.015 | 0.51 | 0.032 | 0.12
6 | C=CC(=O)NCc1nn(-c2ccc(OC(F)(F)F)cc2)c2nccc([C@H](O)COC(=O)CN)c12 [Compound 145, (S)-2-(3-(Acrylamidomethyl)-1-(4-(trifluoromethoxy)phenyl)-1H-pyrazolo[3,4-b]pyridin-4-yl)-2-hydroxyethyl 2-aminoacetate formate] | 0.049 | – | 0.14 | 0.071
7 | O=C(/C=C/CO)N1CC(c2nn(-c3ccc(OC(F)(F)F)cc3)c3nccc(CO)c23)C1 [Compound 94, (E)-4-Hydroxy-1-(3-(4-(hydroxymethyl)-1-(4-(trifluoromethoxy)phenyl)-1H-pyrazolo[3,4-b]pyridin-3-yl)azetidin-1-yl)but-2-en-1-one] | – | – | 0.015 | 0.029
8 | C=CC(=O)NCc1nn(-c2ccc(OC(F)(F)F)cc2)c2nccc([C@H](O)COC(C)=O)c12 [Compound 146, (S)-2-(3-(Acrylamidomethyl)-1-(4-(trifluoromethoxy)phenyl)-1H-pyrazolo[3,4-b]pyridin-4-yl)-2-hydroxyethyl acetate] | 0.028 | – | 0.04 | 0.066
9 | C=CC(=O)NCc1nn(-c2ccc(OC(F)(F)F)cc2)c2nccc(N(C)[C@H]3C[C@H](O)C3)c12 [Compound 90, N-((4-((3-hydroxycyclobutyl)(methyl)amino)-1-(4-(trifluoromethoxy)phenyl)-1H-pyrazolo[3,4-b]pyridin-3-yl)methyl)acrylamide] | 0.0099 | 3.7 | – | –
10 | C=CC(=O)NCc1nn(-c2ccc(OC(F)(F)F)cc2)c2nccc([C@H](O)COP(=O)(O)O)c12 [Compound 147, (S)-2-(3-(Acrylamidomethyl)-1-(4-(trifluoromethoxy)phenyl)-1H-pyrazolo[3,4-b]pyridin-4-yl)-2-hydroxyethyl dihydrogen phosphate] | 36 | – | – | –

Continued by falling IC50 (TEAD3), values first:

Row | IC50 (TEAD4) [µM] | IC50 (TEAD3) [µM] | IC50 (TEAD1) [µM] | IC50 (TEAD2) [µM] | SMILES
11 | 0.11 | 50 | 0.043 | 0.16 | C=C(F)C(=O)N1CC(c2nn(-c3ccc(OC(F)(F)F)cc3)c3nccc(-c4cnn(CC(=O)N(C)C)c4)c23)C1 [Compound 180, 2-(4-(3-(1-(2-fluoroacryloyl)azetidin-3-yl)-1-(4-(trifluoromethoxy)phenyl)-1H-pyrazolo[3,4-b]pyridin-4-yl)-1H-pyrazol-1-yl)-N,N-dimethylacetamide]
12 | 0.2 | 50 | 0.087 | 0.86 | C=C(F)C(=O)N1CC(c2nn(-c3ccc(OC(F)(F)F)cc3)c3nccc(-c4cnn(C(C)C)c4)c23)C1 [Compound 178, 2-fluoro-1-(3-(4-(1-isopropyl-1H-pyrazol-4-yl)-1-(4-(trifluoromethoxy)phenyl)-1H-pyrazolo[3,4-b]pyridin-3-yl)azetidin-1-yl)prop-2-en-1-one]
13 | 0.57 | 50 | 0.68 | 0.63 | C/C=C(\C)C(=O)N1CC(c2nn(-c3ccc(OC(F)(F)F)cc3)c3nccc(CO)c23)C1 [Compound 151, (E)-1-(3-(4-(Hydroxymethyl)-1-(4-(trifluoromethoxy)phenyl)-1H-pyrazolo[3,4-b]pyridin-3-yl)azetidin-1-yl)-2-methylbut-2-en-1-one]
14 | – | 50 | 0.58 | 0.29 | O=C(N1CC(c2nn(-c3ccc(OC(F)(F)F)cc3)c3nccc(CO)c23)C1)C12CC1C2 (stereo not shown) [Compound 153, Bicyclo[1.1.0]butan-1-yl(3-(4-(hydroxymethyl)-1-(4-(trifluoromethoxy)phenyl)-1H-pyrazolo[3,4-b]pyridin-3-yl)azetidin-1-yl)methanone]
15 | 0.033 | 16 | – | – | C=CC(=O)NCc1nn(-c2ccc(OC(F)(F)F)cc2)c2nccc(N(C)[C@H]3C[C@@H](O)C3)c12 [Compound 117, N-((4-((3-hydroxycyclobutyl)(methyl)amino)-1-(4-(trifluoromethoxy)phenyl)-1H-pyrazolo[3,4-b]pyridin-3-yl)methyl)acrylamide]
16 | 0.064 | 4.3 | 0.051 | 0.69 | C=C(F)C(=O)N1CC(c2nn(-c3ccc(OC(F)(F)F)cc3)c3nccc(-c4cnn(C)c4)c23)C1 [Compound 158, 2-Fluoro-1-(3-(4-(1-methyl-1H-pyrazol-4-yl)-1-(4-(trifluoromethoxy)phenyl)-1H-pyrazolo[3,4-b]pyridin-3-yl)azetidin-1-yl)prop-2-en-1-one]
17 | 0.14 | 0.98 | 0.071 | 0.55 | C=C(F)C(=O)NCc1nn(-c2ccc(OC(F)(F)F)cc2)c2nccc(CO)c12 [Compound 68, 2-Fluoro-N-((4-(hydroxymethyl)-1-(4-(trifluoromethoxy)phenyl)-1H-pyrazolo[3,4-b]pyridin-3-yl)methyl)acrylamide]
18 | 0.0054 | 0.84 | 0.042 | 0.019 | C=C(F)C(=O)N1CC(c2nn(-c3ccc(OC(F)(F)F)cc3)c3nccc(N4CC(F)(CO)C4)c23)C1 [Compound 39, 2-Fluoro-1-(3-(4-(3-fluoro-3-(hydroxymethyl)azetidin-1-yl)-1-(4-(trifluoromethoxy)phenyl)-1H-pyrazolo[3,4-b]pyridin-3-yl)azetidin-1-yl)prop-2-en-1-one]
19 | 0.022 | 0.57 | 0.17 | 0.71 | C=CC(=O)N(C)Cc1nn(-c2ccc(OC(F)(F)F)cc2)c2nccc([C@@H](O)CO)c12 [Compound 93, (R)-N-((4-(1,2-dihydroxyethyl)-1-(4-(trifluoromethoxy)phenyl)-1H-pyrazolo[3,4-b]pyridin-3-yl)methyl)-N-methylacrylamide]
20 | – | 0.46 | 0.032 | 0.075 | CC#CC(=O)NCc1nn(-c2ccc(OC(F)(F)F)cc2)c2nccc(CO)c12 [Compound 98, N-((4-(Hydroxymethyl)-1-(4-(trifluoromethoxy)phenyl)-1H-pyrazolo[3,4-b]pyridin-3-yl)methyl)but-2-ynamide]
21 | 0.0051 | 0.35 | 0.036 | 0.037 | C=C(F)C(=O)N1CC(c2nn(-c3ccc(OC(F)(F)F)cc3)c3nccc(N4CC(F)(C(N)=O)C4)c23)C1 [Compound 57, 3-Fluoro-1-(3-(1-(2-fluoroacryloyl)azetidin-3-yl)-1-(4-(trifluoromethoxy)phenyl)-1H-pyrazolo[3,4-b]pyridin-4-yl)azetidine-3-carboxamide]
22 | – | 0.35 | 0.021 | 0.068 | O=C(/C=C/CF)NCc1nn(-c2ccc(OC(F)(F)F)cc2)c2nccc(CO)c12 [Compound 121, (E)-4-Fluoro-N-((4-(hydroxymethyl)-1-(4-(trifluoromethoxy)phenyl)-1H-pyrazolo[3,4-b]pyridin-3-yl)methyl)but-2-enamide]
23 | – | 0.3 | 0.033 | 0.25 | C=C(C)C(=O)N1CC(c2nn(-c3ccc(OC(F)(F)F)cc3)c3nccc(CO)c23)C1 [Compound 22, 1-(3-(4-(Hydroxymethyl)-1-(4-(trifluoromethoxy)phenyl)-1H-pyrazolo[3,4-b]pyridin-3-yl)azetidin-1-yl)-2-methylprop-2-en-1-one]
24 | 0.013 | 0.0385 | 0.0215 | 0.0072 | C=C(F)C(=O)N1CC(c2nn(-c3ccc(OC(F)(F)F)cc3)c3nccc([C@@H](O)CO)c23)C1 [Compound 21, 1-[3-[4-[(1R)-1,2-dihydroxyethyl]-1-[4-(trifluoromethoxy)phenyl]pyrazolo[3,4-b]pyridin-3-yl]azetidin-1-yl]-2-fluoro-prop-2-en-1-one]
25 | 0.0043 | 0.017 | 0.019 | 0.008 | C=C(Cl)C(=O)N1CC(c2nn(-c3ccc(OC(F)(F)F)cc3)c3nccc([C@@H](O)CO)c23)C1 [Compound 110, (R)-2-chloro-1-(3-(4-(1,2-dihydroxyethyl)-1-(4-(trifluoromethoxy)phenyl)-1H-pyrazolo[3,4-b]pyridin-3-yl)azetidin-1-yl)prop-2-en-1-one]
